Earlier results, collected in patent US20180187029A1, “COMPOSITION FOR FORMING HIGH RELEASE AND LOW FRICTION FUNCTIONAL COATINGS” (WHITFORD CORPORATION, priority 2015, published 2018).

Conditions: for Density / Vapor pressure / Viscosity: 20° C.; for Surface tension: 23° C.

| SMILES | Density | Vapor pressure | Viscosity | Surface tension |
| --- | --- | --- | --- | --- |
| COCCC(=O)N(C)C [3-methoxy-N,N-dimethylpropanamide] | 0.99 g/Cm3 | 0.016 kPa | 2.3 mPa · s | 34.2 mN/m |
| CN1CCCC1=O [N-methyl-2-pyrrolidone] | 1.03 g/Cm3 | 0.04 kPa | 1.8 mPa · s | 38.6 mN/m |
